Data: patent US20250011303A1, “SMALL MOLECULE MODULATORS OF IL-17A, METHODS OF MAKING AND METHODS OF USING THEREOF” (ASCLETIS BIOSCIENCE CO., LTD, priority 2023, published 2025)
Where two headings read alike, the source gives them in different places.

Test system: HEK-Blue IL-17 cells with rhIL-17A/A
Test: HEK-Blue IL-17 cell assay (SEAP reporter, rhIL-17A/A stimulation)
Assay type: cell-based, human
Conditions: 20 hours incubation, absorbance at 405 nm, read-out: IC50 in HEK-Bule cell Assay
Method: • 1. The test Compounds were 3-fold serial diluted from 10 mM for 10 doses in DMSO. • 2. Prepare Reference Compounds (IL-17A-Inhibitor-1) were 3-fold serial diluted from 1 mM for 10 doses in DMSO. • 3. Prepare 1000× Positive control (1 mM IL-17A-Inhibitor-1) and 1000× vehicle control (100% DMSO).
• a) Cells were cultured as the HEK-Blue™ IL-17 technical data sheet recommended. HEK-Blue IL-17 cells were assayed in the exponential growth phase. • b) Aspirate growth medium and rinse cells twice with PBS to remove phenol red. • c) Resuspend cells in test medium to a proper concentration. • d) Only cells with viability greater than 90% were used for assays. • e) Transfer 25 nl of compound dilutions into 384-well assay plates using Echo655; • f) Seed 25 ul of HEK-Blue IL-17 cells at 8,000 cells/well into 384-well plate with rhIL-17A/A. • g) Cells were incubated for 20 hours at 37° C. under 5% CO2 atmosphere. • h) Transfer 2 ul of cells supernatant into per well of 384-well assay plates. • i) Add 20 ul of PNPP substrate. • j) Measure the Absorbance at 405 nm on Envision 2105 plate reader.
RLU signal (LUMcmpd) is calculated for each well.
% Inhibition is calculated as follow: […]
Signalave_pc: The average signal for the positive controls across the plate.
Signalave_vc: The average signal for negative controls across the plate.
Calculate IC50 and Plot effect-dose curve of cmpds:
Calculate IC50 by fitting % Inhibition values and log of compound concentrations to nonlinear regression (dose response−variable slope) with Graphpad 8.0.

SMILES | IC50 (Homo sapiens, HEK-Blue, 20 h) [nM] | IC50 [nM]
CC(C)n1nccc1C(=O)N[C@H](C(=O)Nc1ccc2c(c1)OCC[C@H]2NC(=O)CCC(F)(F)F)C1CCCCCC1 [Compound 1] | 209 | 
CC(C)n1nccc1C(=O)N[C@H](C(=O)Nc1ccc2c(c1)OCC[C@H]2NS(=O)(=O)CCC(F)(F)F)C1CCCCCC1 [Compound 5] | 333 | 
CC(C)n1nccc1C(=O)N[C@H](C(=O)Nc1ccc2c(c1)OCC(C)(C)[C@H]2NC(=O)CCC(F)(F)F)C1CCCCCC1 [Compound 12] | 317 | 
CC(C)n1nccc1C(=O)N[C@H](C(=O)Nc1ccc2c(c1)OC(C)(C)C[C@H]2NC(=O)CCC(F)(F)F)C1CCCCCC1 [Compound 13] | 239 | 
CC(C)n1nccc1C(=O)N[C@H](C(=O)Nc1ccc2c(c1)OCC[C@H]2C(=O)N1CC(F)(F)C(F)(F)C1)C1CCCCCC1 [Compound 36] | 154 | 
CCC1(CC)CC(C(=O)N2CC(F)(F)C2)c2ccc(NC(=O)[C@@H](NC(=O)c3ccnn3C(C)C)C3CCCCCC3)cc2O1 (stereo partly shown) [Compound 108] | 102 | 
CC(C)n1nccc1C(=O)N[C@H](C(=O)Nc1ccc2c(c1)O[C@@H](C1CC(F)(F)C1)C[C@H]2C(=O)N1CC(F)(F)C1)C1CCCCCC1 [Compound 135] | 18.9 | 
CC(C)n1nccc1C(=O)N[C@H](C(=O)Nc1ccc2c(c1)O[C@H](C1CC(F)(F)C1)C[C@H]2C(=O)N1CC(F)(F)C1)C1CCCCCC1 [Compound 136] | 49 | 
CC(C)n1nccc1C(=O)N[C@H](C(=O)Nc1ccc2c(c1)OC1(CCOCC1)C[C@H]2C(=O)N1CC(F)(F)C1)C1CCCCCC1 [Compound 152] | 7.49 | 
CC(C)n1nccc1C(=O)N[C@H](C(=O)Nc1ccc2c(c1)O[C@@H](C1CC(F)(F)C1)C[C@H]2C(=O)N1CC(F)(F)C1)C(C1CC1)C1CC1 [Compound 160] | 42.1 | 
CC(C)n1nccc1C(=O)N[C@H](C(=O)Nc1ccc2c(c1)OC1(CCOCC1)C[C@H]2C(=O)N1CC(F)(F)C1)C(C1CC1)C1CC1 [Compound 162] | 35.7 | 
CC(C)C1CC(C(=O)N2CC(C(F)(F)F)C2)c2ccc(NC(=O)[C@@H](NC(=O)c3ccnn3C(C)C)C3CCCCCC3)cc2O1 (stereo partly shown) [Compound 164] | 72.6 | 
CC(C)C1CC(C(=O)N2CC3(C2)CC(F)(F)C3)c2ccc(NC(=O)[C@@H](NC(=O)c3ccnn3C(C)C)C3CCCCCC3)cc2O1 (stereo partly shown) [Compound 165] | 127 | 
CC(C)n1nccc1C(=O)N[C@H](C(=O)Nc1ccc2c(c1)OC(C)(C)CN2C(=O)N1CC(F)(F)C1)C1CCCCCC1 [Compound 166] | 54.5 | 
CC(C)C1CN(C(=O)N2CC(F)(F)C2)c2ccc(NC(=O)[C@@H](NC(=O)c3ccnn3C(C)C)C3CCCCCC3)cc2O1 (stereo partly shown) [Compound 167] | 30.4 | 
CC(C)n1nccc1C(=O)N[C@H](C(=O)Nc1ccc2c(c1)OC1(CCOCC1)CN2C(=O)N1CC(F)(F)C1)C1CCCCCC1 [Compound 169] | 18.2 | 
O=C(N[C@H](C(=O)Nc1ccc2c(c1)OC(C1CC(F)(F)C1)CC2C(=O)N1CC(C(F)(F)F)C1)C1CCCCCC1)OCC1CC1(F)F (stereo partly drawn) [Compound 189, (2,2-difluorocyclopropyl)methyl N—[(S)-cycloheptyl[(2-(3,3-difluorocyclobutyl)-4-(3-(trifluoromethyl)azetidine-1-carbonyl)-3,4-dihydro-2H-1-benzopyran-7-yl)carbamoyl]methyl]carbamate] | 226 | 
O=C(N[C@H](C(=O)Nc1ccc2c(c1)OC1(CCOCC1)CC2C(=O)N1CC(F)(F)C1)C1CCCCCC1)OC[C@@H]1CC1(F)F (stereo partly shown) [Compound 190] | 367 | 
O=C(N[C@H](C(=O)Nc1ccc2c(c1)OC(C1CC(F)(F)C1)CC2C(=O)N1CC(F)(F)C1)C1CCCCCC1)OCc1cc(C(F)F)on1 (stereo partly shown) [Compound 191] | 171 | 
O=C(N[C@H](C(=O)Nc1cc2c(cc1F)C(C(=O)N1CC(F)(F)C1)CC(C1CC(F)(F)C1)O2)C1CCCCCC1)OC[C@@H]1CC1(F)F (stereo partly shown) [Compound 192] | 267 | 
CC(C)n1nccc1C(=O)N[C@H](C(=O)Nc1cc2c(cc1F)C(C(=O)N1CC(F)(F)C1)CC(C1CC(F)(F)C1)O2)C1CCCCCC1 (stereo partly shown) [Compound 193] | 39.7 | 
CC(C)C1CC(C(=O)N2CC(F)(F)C2)c2ccc(NC(=O)[C@@H](NC(=O)OC3CC(F)(F)C3)C3CCCCCC3)cc2O1 (stereo partly shown) [Compound 194] | 564 | 
CC(C)n1nccc1C(=O)N[C@H](C(=O)Nc1ccc2c(c1F)OC(C1CC(F)(F)C1)CC2C(=O)N1CC(F)(F)C1)C1CCCCCC1 (stereo partly shown) [Compound 195] | 131 | 
CC(C)n1nccc1C(=O)N[C@H](C(=O)Nc1ccc2c(c1)OCCC2C(=O)N1CC(F)(F)C1)C1CCCCCC1 (stereo partly shown) [Compound 197] | 287 | 
CC(C)n1nccc1C(=O)N[C@H](C(=O)Nc1ccc2c(c1)OCC[C@H]2C(=O)N1CC(F)(F)C1)C1CCCCCC1 [Compound 198] | 216 | 

SMILES | IC50 (Homo sapiens, HEK-Blue, 20 h) [nM] | IC50 [nM]
CC(C)n1nccc1C(=O)N[C@H](C(=O)Nc1ccc2c(c1)OC(C)(C)CC2C(=O)N1CC(F)(F)C1)C1CCCCCC1 (stereo partly shown) [Compound 200] | 200 | 
CC(C)n1nccc1C(=O)N[C@H](C(=O)Nc1ccc2c(c1)OCCC2CC(=O)N1CC(F)(F)C(F)(F)C1)C1CCCCCC1 (stereo partly shown) [Compound 201] | 443 | 
CC(C)n1nccc1C(=O)N[C@H](C(=O)Nc1ccc2c(c1)CCCC2C(=O)N1CC(F)(F)C(F)(F)C1)C1CCCCCC1 (stereo partly shown) [Compound 203] | 141 | 
CC(C)n1nccc1C(=O)N[C@H](C(=O)Nc1ccc2c(c1)OCCC2C(=O)N1CCC(F)(F)CC1)C1CCCCCC1 (stereo partly shown) [Compound 206] | 369 | 
CC(C)n1nccc1C(=O)N[C@H](C(=O)Nc1ccc2c(c1)SCCC2C(=O)N1CC(F)(F)C(F)(F)C1)C1CCCCCC1 (stereo partly shown) [Compound 207] | 92.9 | 
CC(C)n1nccc1C(=O)N[C@H](C(=O)Nc1ccc2c(c1)S(=O)(=O)CCC2C(=O)N1CC(F)(F)C(F)(F)C1)C1CCCCCC1 (stereo partly shown) [Compound 208] | 290 | 
CC(C)n1nccc1C(=O)N[C@H](C(=O)Nc1ccc2c(c1)OC(C1CCC1)CC2C(=O)N1CC(F)(F)C(F)(F)C1)C1CCCCCC1 (stereo partly shown) [Compound 210] | 251 | 
CC(C)n1nccc1C(=O)N[C@H](C(=O)Nc1ccc2c(c1)OC(C1CCCC1)CC2C(=O)N1CC(F)(F)C(F)(F)C1)C1CCCCCC1 (stereo partly shown) [Compound 211] | 259 | 
CC(C)n1nccc1C(=O)N[C@H](C(=O)Nc1ccc2c(c1)OC(C1CCCCC1)CC2C(=O)N1CC(F)(F)C1)C1CCCCCC1 (stereo partly shown) [Compound 212] | 213 | 
CC(C)n1nccc1C(=O)N[C@H](C(=O)Nc1ccc2c(c1)OC(C(C)(C)C)CC2C(=O)N1CC(F)(F)C(F)(F)C1)C1CCCCCC1 (stereo partly shown) [Compound 213] | 112 | 
Cc1nonc1C(=O)N[C@H](C(=O)Nc1ccc2c(c1)OC(C(C)C)CC2C(=O)N1CC(F)(F)C1)C1CCCCCC1 (stereo partly shown) [Compound 214] | 335 | 
CC(C)[C@H]1C[C@@H](C(=O)N2CC(F)(F)C(F)(F)C2)c2ccc(NC(=O)[C@@H](NC(=O)c3ccnn3C(C)C)C3CCCCCC3)cc2O1 [Compound 215] | 40.7 | 
CC(C)[C@@H]1C[C@@H](C(=O)N2CC(F)(F)C(F)(F)C2)c2ccc(NC(=O)[C@@H](NC(=O)c3ccnn3C(C)C)C3CCCCCC3)cc2O1 [Compound 217] | 199 | 
CC(C)[C@H]1C[C@H](C(=O)N2CC(F)(F)C(F)(F)C2)c2ccc(NC(=O)[C@@H](NC(=O)c3ccnn3C(C)C)C3CCCCCC3)cc2O1 [Compound 218] | 222 | 
CC(C)n1nccc1C(=O)N[C@H](C(=O)Nc1ccc2c(c1)CCCC2C(=O)N1CC(F)(F)C1)C1CCCCCC1 (stereo partly shown) [Compound 219] | 276 | 
CC(C)CC1CC(C(=O)N2CC(F)(F)C2)c2ccc(NC(=O)[C@@H](NC(=O)c3ccnn3C(C)C)C3CCCCCC3)cc2O1 (stereo partly shown) [Compound 220] | 181 | 
CC(C)n1nccc1C(=O)N[C@H](C(=O)Nc1ccc2c(c1)OC1(CCCCC1)CC2C(=O)N1CC(F)(F)C1)C1CCCCCC1 (stereo partly shown) [Compound 221] | 116 | 
CC(C)n1nccc1C(=O)N[C@H](C(=O)Nc1ccc2c(c1)OC1(CCC1)CC2C(=O)N1CC(F)(F)C1)C1CCCCCC1 (stereo partly shown) [Compound 222] | 255 | 
CC(C)n1nccc1C(=O)N[C@H](C(=O)Nc1ccc2c(c1)OC1(CCCC1)CC2C(=O)N1CC(F)(F)C1)C1CCCCCC1 (stereo partly shown) [Compound 223] | 130 | 
CC(C)n1nccc1C(=O)N[C@H](C(=O)Nc1ccc2c(c1)OC1(CCC(C)(C)CC1)CC2C(=O)N1CC(F)(F)C1)C1CCCCCC1 (stereo partly shown) [Compound 224] | 202 | 
CC(C)n1nccc1C(=O)N[C@H](C(=O)Nc1ccc2c(c1)O[C@H](C1CC(F)(F)C1)C[C@H]2C(=O)N1CC(F)(F)C1)C1CCCCCC1 [Compound 226] |  | 48.9
CC(C)n1nccc1C(=O)N[C@H](C(=O)Nc1ccc2c(c1)O[C@@H](C1CC(F)(F)C1)C[C@H]2C(=O)N1CC(F)(F)C1)C1CCCCCC1 [Compound 228] |  | 27.5
CC(C)C1CC(C(=O)N2CC(F)(F)C2)c2cc(F)c(NC(=O)[C@@H](NC(=O)c3ccnn3C(C)C)C3CCCCCC3)cc2O1 (stereo partly shown) [Compound 230] | 242 | 
CC(C)n1nccc1C(=O)N[C@H](C(=O)Nc1ccc2c(c1)OC(C1CC(F)(F)C1)CC2C(=O)N1CC(C(F)(F)F)C1)C1CCCCCC1 (stereo partly shown) [Compound 231] | 116 | 
